Converted amounts (≈) assume the structure as drawn. The source made the active and inactive calls. The rule behind the calls is not given here.
Experiments:
MDA-MB-231 = assay: Antiproliferative activity against human MDA-MB-231 cells incubated for 168 hrs by SRB method; assay type: functional, cell-based; conditions: MDA-MB-231, 168 h
[1] = Toxicity in Balb/c mouse assessed as effect on liver at 100 mg/kg by H and E staining based analysis; assay type: organism-based; conditions: in vivo
NCI-H1975 = assay: Antiproliferative activity against human NCI-H1975 cells incubated for 168 hrs by SRB method; assay type: functional, cell-based; conditions: NCI-H1975, 168 h
[2] = Acute toxicity in Balb/c mouse assessed as effect on kidney 100 mg/kg measured after 27 days by H and E staining based analysis; assay type: organism-based; conditions: in vivo, 648 h, time 27 day
IMR-90 = assay: Antiproliferative activity against human IMR-90 cells incubated for 168 hrs by SRB method; assay type: functional, cell-based; conditions: IMR-90, 168 h
[3] = Toxicity in Balb/c mouse assessed as effect on heart at 100 mg/kg by H and E staining based analysis; assay type: organism-based; conditions: in vivo
HepG2 = assay: Antiproliferative activity against human HepG2 cells incubated for 168 hrs by SRB method; assay type: functional, cell-based; conditions: HepG2, 168 h
[4] = Toxicity in Balb/c mouse assessed as effect on lung at 100 mg/kg by H and E staining based analysis; assay type: organism-based; conditions: in vivo
MIA PaCa-2 = assay: Antiproliferative activity against human MIA PaCa-2 cells incubated for 168 hrs by SRB method; assay type: functional, cell-based; conditions: MIA PaCa-2, 168 h
[5] = Inhibition of ND1 transcript level in human A2780 cells at 500 nM measured after 12 hrs by RT-qPCR analysis relative to control; assay type: functional
HeLa = assay: Antiproliferative activity against human HeLa cells incubated for 168 hrs by SRB method; assay type: functional, cell-based
[6] = Toxicity in Balb/c mouse assessed as effect on spleen at 100 mg/kg by H and E staining based analysis; assay type: organism-based; conditions: in vivo
A2780 [7] = assay: Antiproliferative activity against human A2780 cells incubated for 168 hrs by SRB method; assay type: functional, cell-based; conditions: A2780, 168 h
A2780 [8] = assay: Antitumor activity against human A2780 cells xenografted in BALB/c nude mouse model assessed as reduction in ND1 expression in liver at 100 mg/kg, po administered daily; assay type: functional, organism-based
[9] = Acute toxicity in Balb/c mouse assessed as effect on liver 100 mg/kg measured after 27 days by H and E staining based analysis; assay type: organism-based; conditions: in vivo, 648 h, time 27 day
A2780 [10] = assay: Antitumor activity against human A2780 cells xenografted in BALB/c nude mouse model assessed as induction of tumor shrinkage 100 mg/kg by H and E staining based immunohistochemical analysis; assay type: functional, organism-based
A2780 [11] = assay: Antitumor activity against human A2780 cells xenografted in BALB/c nude mouse model assessed as reduction in mitochondrial DNA transcript level at 100 mg/kg, po administered daily; assay type: functional, organism-based
[12] = Toxicity in Balb/c mouse assessed as effect on kidney at 100 mg/kg by H and E staining based analysis; assay type: organism-based; conditions: in vivo
MDA-MB-468 = assay: Antiproliferative activity against human MDA-MB-468 cells incubated for 168 hrs by SRB method; assay type: functional, cell-based; conditions: MDA-MB-468, 168 h
A549 = assay: Antiproliferative activity against human A549 cells incubated for 168 hrs by SRB method; assay type: functional, cell-based; conditions: A549, 168 h
A2780 [13] = assay: Antitumor activity against human A2780 cells xenografted in BALB/c nude mouse model assessed as reduction in tumor weight at 100 mg/kg, po administered daily and measured after 27 days relative to control; assay type: functional; set-up: scale not given: the % may be the effect or the level left; conditions: time 27 day
[14] = Antiproliferative activity against human PBMC cells incubated for 168 hrs by SRB method; assay type: functional, cell-based
[15] = Solubility in PBS at pH 7.4; assay type: physicochemical
DLD-1 = assay: Antiproliferative activity against human DLD-1 cells incubated for 168 hrs by SRB method; assay type: functional, cell-based; conditions: DLD-1, 168 h
NCI-H3122 = assay: Antiproliferative activity against human NCI-H3122 cells incubated for 168 hrs by SRB method; assay type: functional, cell-based; conditions: NCI-H3122, 168 h
[16] = AUC (0 to infinity) in ICR mouse at 1 mg/kg, iv measured upto 24 hrs by LC-MS/MS analysis; assay type: ADME, organism-based; set-up: time < 24 hrs, dose 1 mg/kg, route iv; conditions: in vivo
[17] = Clearance in ICR mouse at 1 mg/kg, iv measured upto 24 hrs by LC-MS/MS analysis; assay type: ADME, organism-based; conditions: in vivo
[18] = Half life in ICR mouse at 1 mg/kg, iv measured upto 24 hrs by LC-MS/MS analysis; assay type: ADME, organism-based; conditions: in vivo
[19] = AUC (0 to t) in ICR mouse at 1 mg/kg, iv measured upto 24 hrs by LC-MS/MS analysis; assay type: ADME, organism-based; set-up: time < 24 hrs, dose 1 mg/kg, route iv; conditions: in vivo
[20] = Oral bioavailability in ICR mouse at 10 mg/kg measured upto 24 hrs by LC-MS/MS analysis; assay type: ADME, organism-based; conditions: in vivo
[21] = MRT in ICR mouse at 1 mg/kg, iv measured upto 24 hrs by LC-MS/MS analysis; assay type: ADME, organism-based; conditions: in vivo
[22] = Volume of distribution at steady state in ICR mouse at 1 mg/kg, iv measured upto 24 hrs by LC-MS/MS analysis; assay type: ADME, organism-based; conditions: in vivo, read-out: Vdss
[23] = Cmax in ICR mouse at 1 mg/kg, iv measured upto 24 hrs by LC-MS/MS analysis; assay type: ADME, organism-based; set-up: time < 24 hrs, dose 1 mg/kg, route iv; conditions: in vivo
[24] = Cmax in ICR mouse at 10 mg/kg, po measured upto 24 hrs by LC-MS/MS analysis; assay type: ADME, organism-based; set-up: time < 24 hrs, dose 10 mg/kg, route po; conditions: in vivo
[25] = AUC (0 to t) in ICR mouse at 10 mg/kg, po measured upto 24 hrs by LC-MS/MS analysis; assay type: ADME, organism-based; set-up: dose 10 mg/kg, time < 24 hrs, route po; conditions: in vivo
[26] = Half life in ICR mouse at 10 mg/kg, po measured upto 24 hrs by LC-MS/MS analysis; assay type: ADME, organism-based; conditions: in vivo

With `C[C@@H](Oc1ccc2c(-c3ccc(F)cc3Cl)cc(=O)oc2c1)C(=O)N1CCC[C@H](C(=O)O)C1` the IC50 (MDA-MB-231) was greater than 10000 nM, the Activity [1] was “Non-Toxic” and the IC50 (NCI-H1975) was 221 nM. For the same molecule, the Activity [2] was “Non-Toxic”, the IC50 (IMR-90) was greater than 50000 nM and the Activity [3] was “Non-Toxic”. For the same molecule, the IC50 (HepG2) was 168 nM, the Activity [4] was “Non-Toxic” and the IC50 (MIA PaCa-2) was 152 nM. The inhibition at 0.5 µM [5] was 25%, the IC50 (HeLa) was 1050 nM and the Activity [6] was “Non-Toxic”. For the same molecule, the IC50 (A2780 [7]) was 138 nM, the Activity (A2780 [8]) was “Active” and the Activity [9] was “Non-Toxic”. The Activity (A2780 [10]) was “Active”, the Activity (A2780 [11]) was “Active” and the Activity [12] was “Non-Toxic”. For the same molecule, the IC50 (MDA-MB-468) was 189 nM, the IC50 (A549) was 881 nM and the Activity (A2780 [13]) was 56.75%. For the same molecule, the IC50 [14] was greater than 50000 nM, the solubility [15] was 6.49 µg/mL (≈ 13.7 µM) and the IC50 (DLD-1) was 142 nM. It also gave an IC50 (NCI-H3122) greater than 10000 nM.

In the case of `Cc1ccc(-c2cc(=O)oc3cc(O[C@H](C)C(=O)N4CC5CCC(C4)N5)ccc23)c(C)c1`, the AUC(0-inf) [16] is reported as 351 ng·h/mL, the clearance [17] is reported as 47.6 mL/min/kg and the half-life [18] is reported as 1.61 h. The AUC(0-t) at 24 h [19] was 294 ng·h/mL, the inhibition at 0.5 µM [5] was 7% and the bioavailability [20] was 13.7%. The IC50 (A2780 [7]) was 27 nM, the MRT [21] was 2.05 h and the Vd [22] was 5.84 L/kg. For the same molecule, the Cmax [23] was 234 ng/mL, the Cmax [24] was 66.6 ng/mL and the AUC(0-t) at 24 h [25] was 403 ng·h/mL. It also gave a half-life [26] of 2.67 h.
